Bounds are passed on as bounds.

Experiment [1] has as its target EGFR (human) (UniProt P00533). To be noted: sf-295.
The target in experiment [2] is EGFR (human) (UniProt P00533). Conditions: uo-31.
Experiment [3] concerns the target EGFR (human) (UniProt P00533). To be noted: hl60tb.
The target in experiment [4] is EGFR (human) (UniProt P00533). To be noted: sr.
The target of experiment [5] is EGFR (human) (UniProt P00533). Conditions: hcc2998.
Experiment [6] concerns the target EGFR (human) (UniProt P00533). To be noted: sk-mel-28.
The target in experiment [7] is EGFR (human) (UniProt P00533). To be noted: hop-92.
Experiment [8] has as its target EGFR (human) (UniProt P00533). Conditions: h23.
Experiment [9] concerns the target EGFR (human) (UniProt P00533). To be noted: mcf7/adr-res.
In experiment [10] the target is EGFR (human) (UniProt P00533). To be noted: a549.
Experiment [11] addresses EGFR (human) (UniProt P00533). Conditions: igr-ovi.
The target of experiment [12] is EGFR (human) (UniProt P00533). To be noted: ccrf-cem leukemia cell.
The target in experiment [13] is EGFR (human) (UniProt P00533). To be noted: mg-mid.
For experiment [14], the target named is EGFR (human) (UniProt P00533). To be noted: u251.
Experiment [15] deals with EGFR (human) (UniProt P00533). To be noted: caski.
The target in experiment [16] is EGFR (human) (UniProt P00533). Conditions: ht-29.

Chain of EGFR (human) (P00533 whole entry, looked up): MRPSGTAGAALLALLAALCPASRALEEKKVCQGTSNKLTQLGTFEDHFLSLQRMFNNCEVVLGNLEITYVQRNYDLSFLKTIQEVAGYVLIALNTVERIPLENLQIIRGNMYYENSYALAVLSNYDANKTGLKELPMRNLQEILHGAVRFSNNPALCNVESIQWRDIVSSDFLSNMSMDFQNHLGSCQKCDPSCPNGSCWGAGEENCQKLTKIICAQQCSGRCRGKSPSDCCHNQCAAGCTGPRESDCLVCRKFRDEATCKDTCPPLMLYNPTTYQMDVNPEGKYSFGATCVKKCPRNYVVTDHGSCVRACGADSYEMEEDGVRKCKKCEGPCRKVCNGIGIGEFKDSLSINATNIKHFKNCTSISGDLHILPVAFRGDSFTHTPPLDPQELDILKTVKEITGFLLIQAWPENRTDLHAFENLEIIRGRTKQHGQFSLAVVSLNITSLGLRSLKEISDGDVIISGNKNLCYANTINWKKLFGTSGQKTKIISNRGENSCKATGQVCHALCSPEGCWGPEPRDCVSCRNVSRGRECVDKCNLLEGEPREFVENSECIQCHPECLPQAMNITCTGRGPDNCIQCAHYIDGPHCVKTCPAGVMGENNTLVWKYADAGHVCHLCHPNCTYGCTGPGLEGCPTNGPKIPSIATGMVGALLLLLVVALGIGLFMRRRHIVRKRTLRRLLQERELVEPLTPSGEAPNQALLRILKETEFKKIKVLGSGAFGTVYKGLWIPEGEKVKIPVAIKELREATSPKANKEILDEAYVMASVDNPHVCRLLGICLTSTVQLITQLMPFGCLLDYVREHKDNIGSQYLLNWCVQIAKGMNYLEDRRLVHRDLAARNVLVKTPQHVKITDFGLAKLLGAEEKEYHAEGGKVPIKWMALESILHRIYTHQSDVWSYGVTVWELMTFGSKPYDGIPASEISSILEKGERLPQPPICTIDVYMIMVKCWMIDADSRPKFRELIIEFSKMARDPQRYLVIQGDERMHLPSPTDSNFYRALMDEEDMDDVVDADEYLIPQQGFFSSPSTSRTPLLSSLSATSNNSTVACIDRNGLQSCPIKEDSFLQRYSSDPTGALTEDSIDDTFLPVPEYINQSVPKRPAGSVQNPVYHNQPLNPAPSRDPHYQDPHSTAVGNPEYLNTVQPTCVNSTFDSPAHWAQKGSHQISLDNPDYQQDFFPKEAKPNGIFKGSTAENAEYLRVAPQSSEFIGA

By GI50 is commonly meant the concentration giving 50% growth inhibition. Read a low GI50 as more potent growth inhibition. A word on the IC50: it is the concentration that inhibits the measured activity by half. For the compound `CCOC(=O)/C(C#N)=C/c1ccc([N+](=O)[O-])s1`, the GI50 amounted to 2.09 µM with EGFR (human) [1]; 1.86 µM with EGFR (human) [2]; 0.28 µM with EGFR (human) [3]; 3.02 µM with EGFR (human) [4]; 3.47 µM with EGFR (human) [5]; 2.95 µM with EGFR (human) [6]. The GI50 in the experiment with EGFR (human) [7] worked out at 11.5 µM; in the experiment with EGFR (human) [8] it was 2.63 µM; in the experiment with EGFR (human) [9], 3.47 µM; in the experiment with EGFR (human) [10] it was 15.5 µM; with EGFR (human) [11], 1.66 µM; with EGFR (human) [12] it was 1.55 µM. Moreover, the results for the GI50 in the experiment with EGFR (human) [13], in the experiment with EGFR (human) [14] and with EGFR (human) [16] were 3.47 µM, 13.5 µM and 2.04 µM, respectively. On EGFR (human) [15], this compound had an IC50 of 6.94 µM.
Take `N#CC(C#N)=Cc1csc([N+](=O)[O-])c1`: the GI50 with EGFR (human) [2] worked out at 17.8 µM; in the experiment with EGFR (human) [3], 42.6 µM; with EGFR (human) [4] it was 30.2 µM; with EGFR (human) [5], 26.9 µM; with EGFR (human) [6], 16.2 µM; with EGFR (human) [7], 30.9 µM. Also, the GI50 was 30.2 µM in the experiment with EGFR (human) [8]; 37.1 µM with EGFR (human) [9]; above 100 µM with EGFR (human) [10]; 24 µM with EGFR (human) [11]; 23.4 µM in the experiment with EGFR (human) [12]; 30.2 µM with EGFR (human) [13]. This compound also showed a GI50 with EGFR (human) [16] of 21.9 µM. At EGFR (human) [15], this compound had an IC50 of 40 µM.
Regarding `N#CC(C#N)=C(N)/C(C#N)=C/c1ccc([N+](=O)[O-])s1`, the GI50 in the experiment with EGFR (human) [1] amounted to 17.4 µM; with EGFR (human) [2] it was 18.2 µM; in the experiment with EGFR (human) [4] it was 12 µM; with EGFR (human) [5], 15.8 µM; with EGFR (human) [6] it was 17 µM; in the experiment with EGFR (human) [8], 16.6 µM. Moreover, the GI50 in the experiment with EGFR (human) [9] came to 21.4 µM; in the experiment with EGFR (human) [11], 7.24 µM; with EGFR (human) [12], 4.17 µM; with EGFR (human) [13] it was 13.2 µM; in the experiment with EGFR (human) [14], 18.6 µM; in the experiment with EGFR (human) [16], 15.8 µM. Further, the half-maximal inhibitory concentration (IC50) against EGFR (human) [15] is 9.24 µM.

The record behind these values is the Kinase Knowledgebase extract (Sharma et al. 2016).
